Values joined by “and” are separate entries in the source; they are usually repeats but may differ in a detail not shown here. Equal entries are not always repeated. Toxic doses and inconclusive results are not listed. No stated cut-off is given here; in the data, active means T/C of 150% or more; inactive means T/C below 125%.
System: L1210 leukemia ip in BDF1 mice, survival T/C
Assay: NCI In Vivo Anticancer Drug Screen. Data for tumor model L1210 Leukemia (intraperitoneal) in B6D2F1 (BDF1) mice
Conditions: endpoint: mean survival time, higher = longer survival
Method in brief: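 Ratio derived from survival: compound-dosed mice over vehicle-dosed mice, all bearing a transplantable tumor.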

[1] = dose: 12.5 mg/kg/injection, schedule: Q04DX003 (ip), vehicle: saline with Tween-80
[2] = dose: 25.0 mg/kg/injection, schedule: Q01DX009 (ip), vehicle: saline with Tween-80
[3] = dose: 25.0 mg/kg/injection, schedule: Q04DX003 (ip), vehicle: saline with Tween-80
[4] = dose: 50.0 mg/kg/injection, schedule: Q01DX009 (ip), vehicle: saline with Tween-80
[5] = dose: 50.0 mg/kg/injection, schedule: Q04DX003 (ip), vehicle: saline with Tween-80
[6] = dose: 100.0 mg/kg/injection, schedule: Q01DX009 (ip), vehicle: saline with Tween-80
[7] = dose: 100.0 mg/kg/injection, schedule: Q04DX003 (ip), vehicle: saline with Tween-80
[8] = dose: 100.0 mg/kg/injection, schedule: Q04DX003 (ip), vehicle: Klucel (hydroxypropylcellulose) (HPC)
[9] = dose: 100.0 mg/kg/injection, schedule: Q01DX001 (ip), vehicle: carboxymethylcellulose (CMC)
[10] = dose: 200.0 mg/kg/injection, schedule: Q01DX001 (ip), vehicle: carboxymethylcellulose (CMC)
[11] = dose: 400.0 mg/kg/injection, schedule: Q01DX001 (ip), vehicle: carboxymethylcellulose (CMC)
[12] = dose: 12.5 mg/kg/injection, schedule: Q01DX009 (ip), vehicle: saline with Tween-80
[13] = dose: 50.0 mg/kg/injection, schedule: Q01DX009 (ip), vehicle: saline
[14] = dose: 100.0 mg/kg/injection, schedule: Q01DX009 (ip), vehicle: saline
[15] = dose: 100.0 mg/kg/injection, schedule: Q04DX003 (ip), vehicle: saline
[16] = dose: 200.0 mg/kg/injection, schedule: Q04DX003 (ip), vehicle: saline
[17] = dose: 100.0 mg/kg/injection, schedule: Q01DX001 (ip), vehicle: saline with Tween-80
[18] = dose: 200.0 mg/kg/injection, schedule: Q01DX001 (ip), vehicle: saline with Tween-80
[19] = dose: 400.0 mg/kg/injection, schedule: Q01DX001 (ip), vehicle: saline with Tween-80
[20] = dose: 200.0 mg/kg/injection, schedule: Q01DX009 (ip), vehicle: saline with Tween-80
[21] = dose: 200.0 mg/kg/injection, schedule: Q01DX009 (ip), vehicle: saline
[22] = dose: 400.0 mg/kg/injection, schedule: Q01DX009 (ip), vehicle: saline
[23] = dose: 400.0 mg/kg/injection, schedule: Q04DX003 (ip), vehicle: saline
[24] = dose: 25.0 mg/kg/injection, schedule: Q01DX001 (ip), vehicle: saline with Tween-80
[25] = dose: 50.0 mg/kg/injection, schedule: Q01DX001 (ip), vehicle: saline with Tween-80
[26] = dose: 200.0 mg/kg/injection, schedule: Q04DX003 (ip), vehicle: saline with Tween-80
[27] = dose: 400.0 mg/kg/injection, schedule: Q04DX003 (ip), vehicle: saline with Tween-80

Measured: T/C

CCC(C#N)C1=CCCCCC1 (stereo not drawn)
inactive: [1] 103 % of control | [2] 97 % of control | [3] 97 % of control and 101 % of control | [4] 102 % of control | [5] 110 % of control | [6] 107 % of control | [7] 101 % of control

CNc1ccc(S(=O)(=O)O)cc1
inactive: dose: 100.0 mg/kg/injection, schedule: Q01DX009 (ip), vehicle: Klucel (hydroxypropylcellulose) (HPC) 98 % of control | [8] 104 % of control | dose: 200.0 mg/kg/injection, schedule: Q01DX009 (ip), vehicle: Klucel (hydroxypropylcellulose) (HPC) 103 % of control | dose: 200.0 mg/kg/injection, schedule: Q04DX003 (ip), vehicle: Klucel (hydroxypropylcellulose) (HPC) 102 % of control | dose: 400.0 mg/kg/injection, schedule: Q01DX009 (ip), vehicle: Klucel (hydroxypropylcellulose) (HPC) 101 % of control | dose: 400.0 mg/kg/injection, schedule: Q04DX003 (ip), vehicle: Klucel (hydroxypropylcellulose) (HPC) 98 % of control

O=C(N/N=C\c1ccccc1O)c1ccco1
inactive: [9] 98 % of control | [10] 95 % of control | [11] 95 % of control

O=C(CC(Cl)(C(F)(F)F)C(F)(F)F)c1cccc([N+](=O)[O-])c1
inactive: [12] 91 % of control | [1] 96 % of control | [2] 96 % of control | [3] 98 % of control | [4] 96 % of control | [5] 100 % of control

CCN(CC)CC(=O)NCC(CCN1CCOCC1)(CC(C)C)c1cccc2ccccc12 (stereo not drawn)
inactive: [13] 111 % of control | [14] 105 % of control | [15] 96 % of control | [16] 97 % of control

COC1(C#N)C(=O)c2ccccc2C1=O
inactive: [17] 97 % of control | [18] 108 % of control | [19] 94 % of control

CC(C)CC(B1OCCO1)(C1CCCCC1)C1CCCCC1
inactive: [6] 107 % of control | dose: 100.0 mg/kg/injection, schedule: Q04DX003 (ip), vehicle: other 105 % of control | [20] 93 % of control | dose: 200.0 mg/kg/injection, schedule: Q04DX003 (ip), vehicle: other 104 % of control | dose: 400.0 mg/kg/injection, schedule: Q04DX003 (ip), vehicle: other 110 % of control

N#CC(C#N)N=Nc1ccc(Cl)cc1Cl
inactive: dose: 2.5 mg/kg/injection, schedule: Q04DX002 (ip), vehicle: Klucel (hydroxypropylcellulose) (HPC) 98 % of control | dose: 5.0 mg/kg/injection, schedule: Q04DX002 (ip), vehicle: Klucel (hydroxypropylcellulose) (HPC) 102 % of control | dose: 10.0 mg/kg/injection, schedule: Q04DX002 (ip), vehicle: Klucel (hydroxypropylcellulose) (HPC) 98 % of control

Cc1cc(Cl)ccc1OCC(=O)OCCC1=CCC2CC1C2(C)C (stereo not drawn)
inactive: [14] 94 % of control | [21] 100 % of control | [22] 102 % of control

Cc1nc(C)c2c(c1C)-c1ccccc1C2=O
inactive: dose: 50.0 mg/kg/injection, schedule: Q01DX009 (ip), vehicle: other 104 % of control | dose: 50.0 mg/kg/injection, schedule: Q01DX009 (ip), vehicle: saline + alcohol 108 % of control | dose: 100.0 mg/kg/injection, schedule: Q01DX009 (ip), vehicle: other 100 % of control | dose: 100.0 mg/kg/injection, schedule: Q01DX009 (ip), vehicle: saline + alcohol 106 % of control | [15] 102 % of control | dose: 200.0 mg/kg/injection, schedule: Q01DX009 (ip), vehicle: other 100 % of control | dose: 200.0 mg/kg/injection, schedule: Q01DX009 (ip), vehicle: saline + alcohol 108 % of control | [16] 101 % of control | dose: 400.0 mg/kg/injection, schedule: Q01DX009 (ip), vehicle: other 107 % of control | dose: 400.0 mg/kg/injection, schedule: Q01DX009 (ip), vehicle: saline + alcohol 98 % of control | [23] 107 % of control | dose: 500.0 mg/kg/injection, schedule: Q01DX009 (ip), vehicle: other 95 % of control

CN(C)c1ccc(C=Nc2cccc(O)c2)cc1
inactive: [9] 102 % of control | [10] 88 % of control | [11] 94 % of control

COC(C)CCC(=O)O.[Ag] (stereo not drawn)
inactive: dose: 6.25 mg/kg/injection, schedule: Q01DX009 (ip), vehicle: saline with Tween-80 95 % of control | [12] 91 % of control | [1] 91 % of control | [2] 95 % of control | [3] 96 % of control

CN(C)c1nc(N)c(N)c(N)n1
inactive: [24] 101 % of control | [25] 107 % of control | [17] 96 % of control and 97 % of control

Cc1cc(C)cc(NC(=O)c2ccccc2N)c1
inactive: [7] 96 % of control | [26] 91 % of control | [27] 93 % of control

O=Cc1[nH]c(=S)[nH]c(=O)c1Cc1cc([N+](=O)[O-])ccc1O
inactive: [17] 93 % of control | [18] 104 % of control | [19] 95 % of control

CC#CCOCC1CN(C)C(=O)O1 (stereo not drawn)
inactive: dose: 25.0 mg/kg/injection, schedule: Q01DX009 (ip), vehicle: saline 95 % of control | [13] 98 % of control | dose: 50.0 mg/kg/injection, schedule: Q04DX003 (ip), vehicle: saline 106 % of control | [14] 92 % of control | [15] 101 % of control | [21] 90 % of control | [16] 104 % of control | [22] 95 % of control | [23] 101 % of control

CSc1cc(-c2ccccc2)c2ccccc2[n+]1C
inactive: [1] 112 % of control | [2] 116 % of control | [3] 112 % of control | [5] 90 % of control | [7] 94 % of control

CCN(CC)CCCC(C)Nc1cc(N)nc2nc(-c3ccccc3)cnc12 (stereo not drawn) (tested in a mixture with another compound)
inactive: dose: 75.0 mg/kg/injection, schedule: Q01DX001 (ip), vehicle: saline 86 % of control and 91 % of control | dose: 150.0 mg/kg/injection, schedule: Q01DX001 (ip), vehicle: saline 97 % of control

COc1ccc(/C=N\NC(=O)N/N=C/c2ccc(OC)c(Br)c2)cc1Br
inactive: dose: 50.0 mg/kg/injection, schedule: Q04DX002 (ip), vehicle: Klucel (hydroxypropylcellulose) (HPC) 106 % of control | dose: 100.0 mg/kg/injection, schedule: Q04DX002 (ip), vehicle: Klucel (hydroxypropylcellulose) (HPC) 98 % of control and 103 % of control | dose: 200.0 mg/kg/injection, schedule: Q04DX002 (ip), vehicle: Klucel (hydroxypropylcellulose) (HPC) 88 % of control | dose: 400.0 mg/kg/injection, schedule: Q04DX002 (ip), vehicle: Klucel (hydroxypropylcellulose) (HPC) 91 % of control

CC(C)(C)C1=C(C(C)(C)C)CS(=O)(=O)C1
inactive: [24] 98 % of control | [25] 100 % of control | [17] 100 % of control and 107 % of control

NN1C(=O)Cc2ccccc2C1=O
inactive: [9] 102 % of control | [7] 101 % of control | [10] 93 % of control | [26] 101 % of control | [11] 96 % of control | [27] 116 % of control

O=C1c2ccccc2C(=Cc2ccccc2)c2ccccc21
inactive: [6] 107 % of control | [7] 101 % of control | [20] 107 % of control | [26] 100 % of control | dose: 400.0 mg/kg/injection, schedule: Q01DX009 (ip), vehicle: saline with Tween-80 104 % of control | [27] 92 % of control

Cc1nc(N)nc(N)c1CCCCc1ccc(N)cc1
inactive: dose: 100.0 mg/kg/injection, schedule: Q01DX001 (ip), vehicle: Klucel (hydroxypropylcellulose) (HPC) 92 % of control | dose: 200.0 mg/kg/injection, schedule: Q01DX001 (ip), vehicle: Klucel (hydroxypropylcellulose) (HPC) 101 % of control

CC(=O)Nc1ccc(/C=N\NC(=O)N/N=C/c2ccc(NC(C)=O)cc2)cc1
inactive: dose: 50.0 mg/kg/injection, schedule: Q04DX003 (ip), vehicle: Klucel (hydroxypropylcellulose) (HPC) 90 % of control | [8] 91 % of control

From PubChem BioAssay AID248 (DTP/NCI, 2004)
